Patent publication US9101613B2, “Methods for treating neurological disease” (Neurim Pharmaceuticals (1991) Ltd., priority 2006, dated 2015)
Like-named read-outs stand apart in the source and are kept apart here. Marks after values point to notes of the source that are not given here.

Columns and labels:
5-HT2A receptor = target: T1, 5-HT2A receptor (Homo sapiens, UniProt P28223); test: Serotonin receptor binding, [3H] Ketanserin, CHO-K1 membranes
T1 construct: expressed in transfected cells; host or cells: CHO-K1
Protocol: (§1) Aliquots of suspended membranes of human recombinant CHO-K1 cells stably expressing human 5-HT1A, 5-HT2A, 5-HT1B, 5-HT2B, 5-HT2C, 5-HT4, 5-HT6 or 5-HT7 receptors were pre-incubated at 25° C. with 1.5 nM [^3H] 8-OH-DPAT (5-HT1A), 1.5 nM [^3H] Ketanserin (5-HT2A), 0.01 nM [^125I] Cyanopindolol (5-HT1B), 1 nM [^3H] Mesulergine (5-HT2c), 0.7 nM [^3H] GR-113808 (5-HT4) or at 37° C. 1.2 nM [^3H] LSD (5-HT2B, 5-HT6 and 5-HT7) in buffer (50 mM Tris-HCl, pH 7.7) alone or in the presence of 1 nM, 10 nM, 0.1 μM, 1 μM, and 10 μM of N-[2-(5-methoxy-indol-3-yl)-ethyl]-commenamide, N-[2-(5-methoxy-indol-3-yl)-ethyl]-coumalylamide, N-[2-(5-methoxy-indol-3-yl)-ethyl]-comanilamide, N-[2-(5-methoxy-indol-3-yl)-ethyl]-2-methoxy-commenamide or N-[2-(5-methoxy-indol-3-yl)-ethyl]-chelidonamide for 60 minutes. The binding reaction was terminated and washed with 4 ml ice-cold 50 mM Tris-HCl buffer by vacuum filtration. Membranes were then collected, and the filters containing the bound ligands were assayed for the amount of radioactivity in a b-counter. Non-specific binding was evaluated using a reaction with 10 μM metergoline (5-HT1A), 1 μM mianserin (5-HT2A and 5-HT2c) or 10 μM serotonin (5-HT1B, 5-HT2B, 5-HT4, 5-HT6 and 5-HT7).

5-HT2C receptor = target: T2, 5-HT2C receptor (Homo sapiens, UniProt P28335); test: Serotonin receptor binding, [3H] Mesulergine, CHO-K1 membranes
T2 construct: expressed in transfected cells; host or cells: CHO-K1
T2 sequence (P28335 33-458): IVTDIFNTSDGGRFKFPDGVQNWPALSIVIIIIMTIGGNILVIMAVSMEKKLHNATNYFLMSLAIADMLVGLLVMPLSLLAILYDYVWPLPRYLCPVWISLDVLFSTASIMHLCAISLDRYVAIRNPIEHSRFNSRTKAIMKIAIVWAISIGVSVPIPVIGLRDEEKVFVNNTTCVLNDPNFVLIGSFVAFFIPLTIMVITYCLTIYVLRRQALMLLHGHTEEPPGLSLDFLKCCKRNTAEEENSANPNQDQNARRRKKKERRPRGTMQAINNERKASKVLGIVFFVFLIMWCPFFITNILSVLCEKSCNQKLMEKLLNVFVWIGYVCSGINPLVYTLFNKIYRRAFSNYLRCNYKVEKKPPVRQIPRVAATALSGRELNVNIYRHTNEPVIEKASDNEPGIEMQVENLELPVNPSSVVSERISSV
Protocol: as §1

mice = test: Rotarod assay, interaction with diazepam; assay type: in vivo; conditions: for Incidence of performance (rotarod): 15 rpm; for effect on rotarod performance: compound alone i.p., 15 rpm rotation speed;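 as to Incidence of performance (rotarod): Success means running more than 120 min on the rod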
Protocol: The incidences of animals running more than […] on the rotating rod were noted, and significances were calculated by non-parametric x^2 test. 8 mice/group were used.
The rotarod apparatus is divided into five test zones, so that up to five mice may be tested at the same time. The rod has been specially machined to provide a suitable grip for the animal. The diameter of the rod is 3.5 cm. The rotation speed was 15 rpm. When the animal falls off the rotating rod, it presses a button to record automatically the time spent on the rod. On the day before the experiment the mice were trained to run on the rod rotating with 15 rpm. Diazepam was administered orally 60 min before the rotarod assay, test substances were administered intraperitoneally 15 min before testing.

PC12 cells = test: Glutamate-induced loss of cell viability in PC12 cells (MTT); assay type: cell-based
Protocol: For the cell viability assays, 24 h after seeding in 96-well plates, the cultures were pretreated with N-[2-(5-methoxy-indol-3-yl)-ethyl]-comanilamide (100 pm, 1 nM, 10 nM, 100 nM, 1 uM and 10 uM) or melatonin (1 uM) for 0 h before exposure to 4 mM glutamate. After 24 h incubation, cellular viability was evaluated by MTT assay.
PC12 cell viability was determined by the conventional 3-(4,5-dimethylthiazol-2-yl)-2,5-diphenyltetrazolium bromide (MTT) assay. PC12 cells were treated with MTT solution (0.5 mg/ml) and were then incubated at 37° C. for 4 hrs. The medium was removed and 150 μl DMSO/well was added to dissolve formazan. The absorbance at 570 nm was recorded using an enzyme-linked immunosorbent assay reader and the percentage of cell growth inhibition was calculated as follows: Cell viability (%)=A570 (treatment)/A570 (control)×100.

C57BL/6 mice = test: MPTP mouse model of Parkinson's disease, open field test; assay type: in vivo
From the text: Three-month-old male C57BL/6 mice were housed in groups of 5 animals per cage (50 cm×25 cm×20 cm) in a temperature- and humidity-controlled environment with ad libitum access to food and water. Animals were maintained on a 12 hr light/dark schedule, with lights on at 7 A.M.
Six groups of mice were used: (1) the control mice treated with saline and vehicle (n=10), (2) the N-[2-(5-methoxy-indol-3-yl)-ethyl]-comanilamide control mice treated with saline and N-[2-(5-methoxy-indol-3-yl)-ethyl]-comanilamide at 100 or 200 mg/kg (n=5, respectively), (3) the MPTP mice treated with MPTP and vehicle (n=10) and (4) the N-[2-(5-methoxy-indol-3-yl)-ethyl]-comanilamide-treated MPTP mice treated with MPTP and N-[2-(5-methoxy-indol-3-yl)-ethyl]-comanilamide at 100 or 200 mg/kg (n=10, respectively). Mice received daily (i.p.) injections of saline or MPTP (30 mg/kg/day) dissolved in physiological saline for five consecutive days to induce Parkinsonism. […]
For the open field test, the mice were taken from their home cages and transported to the locomotor test chambers (40×40×50 cm) for 5 min and their behaviors were recorded as digital videos. The digital videos then were analyzed off-line. The distance of each mouse traveling in the locomotor test chamber was analyzed by the commercial software.

[1] = Diazepam 1.5 mg/kg p.o. + compound 5 mg/kg i.p.
[2] = Diazepam 1.5 mg/kg p.o. + compound 20 mg/kg i.p.
[3] = Diazepam 1.5 mg/kg p.o. + compound 50 mg/kg i.p.
[4] = Vehicle p.o. + compound 5 mg/kg i.p.
[5] = Vehicle p.o. + compound 20 mg/kg i.p.
[6] = Vehicle p.o. + compound 50 mg/kg i.p.

T1 sequence (P28223 whole entry): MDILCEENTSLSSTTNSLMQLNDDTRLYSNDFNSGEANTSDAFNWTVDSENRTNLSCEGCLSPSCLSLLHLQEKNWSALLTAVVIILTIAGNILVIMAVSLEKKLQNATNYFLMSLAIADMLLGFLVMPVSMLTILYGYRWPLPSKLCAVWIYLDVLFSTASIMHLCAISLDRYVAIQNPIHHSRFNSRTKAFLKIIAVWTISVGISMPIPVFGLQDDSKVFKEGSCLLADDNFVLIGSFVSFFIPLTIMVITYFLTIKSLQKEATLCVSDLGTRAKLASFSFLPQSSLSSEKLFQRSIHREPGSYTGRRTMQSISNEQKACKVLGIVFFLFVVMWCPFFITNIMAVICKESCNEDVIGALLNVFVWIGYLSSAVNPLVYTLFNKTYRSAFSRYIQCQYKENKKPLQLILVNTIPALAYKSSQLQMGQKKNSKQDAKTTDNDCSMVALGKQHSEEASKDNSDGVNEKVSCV

SMILES | IC50 (5-HT2A receptor) | Ki (5-HT2A receptor) | IC50 (5-HT2C receptor; read-out: 5-HT2C IC50) | Ki (5-HT2C receptor; read-out: 5-HT2C KI) | Incidence of performance (rotarod) (mice; [1]) | Incidence of performance (rotarod) (mice; [2]) | Incidence of performance (rotarod) (mice; [3]) | Incidence of performance (rotarod) (mice; [4]) | Incidence of performance (rotarod) (mice; [5]) | Incidence of performance (rotarod) (mice; [6]) | effect on rotarod performance (mice) | effect on cell viability without glutamate (PC12 cells; 10 uM, without glutamate) | effect on glutamate-induced loss of cell viability (PC12 cells; 100 pm to 10 uM, all doses, 4 mM glutamate, 24 h, MTT) | traveled distance, open field test, vs MPTP mice (C57BL/6 mice; MPTP mice, 100 or 200 mg/kg i.p. once per day, day 14, both p<0.01) | traveled distance, open field test, vs control mice (C57BL/6 mice; saline mice, 100 or 200 mg/kg i.p., both p>0.05) | IC50 (5-HT2C receptor) | Ki (5-HT2C receptor)
COc1ccc2[nH]cc(CCNC(=O)c3cc(=O)cc(C(=O)O)o3)c2c1 [N-[2-5-methoxy-indol-3-yl)-ethyl]-chelidonamide] | 7.5 µM | 2.14 µM | 11.2 µM | 5.8 µM | – | – | – | – | – | – | – | – | – | – | – | – | –
COc1ccc2[nH]cc(CCNC(=O)c3cc(=O)cco3)c2c1 [N-[2-(5-methoxy-indol-3-yl)-ethyl]-comanilamide] | – | – | – | – | 4/8* | 2/8*** | 1/8*** | 6/8 | 5/8 | 5/8 | dose dependently impaired the performance | had no effect on the cell viability | significantly attenuated glutamate-induced loss of cell viability | showed more level of the traveled distance | no significant difference in the traveled distance | – | –
COc1ccc2[nH]cc(CCNC(=O)c3cc(=O)c(O)co3)c2c1 [N-[2-(5-methoxy-indol-3-yl)-ethyl]-commenamide] | – | – | – | – | 5/8 | 3/8** | 1/8*** | 8/8 | 5/8 | 5/8 | dose dependently impaired the performance | – | – | – | – | 7.2 µM | 3.8 µM
